Assay results taken from ChEMBL document CHEMBL4431300 (Medchemcomm, 2016).
Converted amounts (≈) assume the structure as drawn. The source made the active and inactive calls. No cut-off for these calls is given here.

Key:
Homo sapiens = species: Homo sapiens; experiment: Antimigratory activity against human ECRF24 cells assessed as wound closure at 6 to 50 uM after 7 hrs by wound healing assay; type: functional, cell-based
Chorioallantoic membrane [1] = experiment: (§1) Antiangiogenic activity in chicken fertilized egg chorioallantoic membrane assessed as inhibition of vascular sprout formation at 435 ug/kg/day, iv administered as single bolus dose 1 min post 5 Jcm'-2 light irradiation on embryo development day 11 measured 24 hrs post dose by epifluorescence microscopic analysis; type: functional, organism-based; settings: Gallus gallus
Chorioallantoic membrane [2] = experiment: (§2) Antiangiogenic activity in chicken fertilized egg chorioallantoic membrane assessed as avascular zone by measuring reduction in number of branching points at 36 ug/kg/day, iv administered as bolus dose on embryo development day 11 for 3 days by epifluorescence microscopic analysis relative to control; type: functional; settings: Gallus gallus
HEK293 = experiment: Antiproliferative activity against HEK293 cells after 72 hrs at 37 degC by CellTiter-Glo luminescence assay; type: cell-based; settings: Homo sapiens, HEK293, 72 h
[3] = Antiproliferative activity against immortalized human ECRF24 cells after 72 hrs at 37 degC by CellTiter-Glo luminescence assay; type: functional; settings: ECRF24, 72 h
[4] = Antiproliferative activity against human A2780cis cells after 72 hrs at 37 degC by MTT assay; type: functional, cell-based
A2780 [5] = experiment: Antitumor activity against human A2780 cells implanted in chicken fertilized egg chorioallantoic membrane assessed as tumor growth inhibition at 64 ug/kg/day, iv administered as bolus dose on embryo development day 11 for 3 days measured up to 8 days post treatment relative to control; type: functional; settings: Gallus gallus, read-out: TGI
Chorioallantoic membrane [6] = experiment: as §1, with “64” for “435”; type: functional, organism-based; settings: Gallus gallus
A2780 [7] = experiment: Antitumor activity against human A2780 cells implanted in chicken fertilized egg chorioallantoic membrane assessed as tumor growth inhibition at 435 ug/kg/day, iv administered as bolus dose on embryo development day 11 for 3 days measured up to 8 days post treatment relative to control; type: functional; settings: Gallus gallus, read-out: TGI
A2780 [8] = experiment: Antiproliferative activity against human A2780 cells after 72 hrs at 37 degC by MTT assay; type: functional, cell-based; settings: A2780, 72 h
Chorioallantoic membrane [9] = experiment: as §2, with “20” for “36”; type: functional; settings: Gallus gallus
[10] = Antiproliferative activity against embryonic stem cells in intact mouse embryoid bodies; type: functional, cell-based
Chorioallantoic membrane [11] = experiment: as §2, with “49” for “36”; type: functional; settings: Gallus gallus
Chorioallantoic membrane [12] = experiment: as §1, with “inhibition” for “inhibition of”, “97” for “435”; type: functional, organism-based; settings: Gallus gallus
Chorioallantoic membrane [13] = experiment: as §2, with “55” for “36”; type: functional; settings: Gallus gallus
Chorioallantoic membrane [14] = experiment: as §1, with “487” for “435”; type: functional, organism-based; settings: Gallus gallus
A2780 [15] = experiment: Antitumor activity against human A2780 cells implanted in chicken fertilized egg chorioallantoic membrane assessed as tumor growth inhibition at 487 ug/kg/day, iv administered as bolus dose on embryo development day 11 for 3 days measured up to 8 days post treatment relative to control; type: functional; settings: Gallus gallus, read-out: TGI

In the case of CCCCCCCCCCCCCCCCCCOC(=O)CCCc1ccc(N(CCCl)CCCl)cc1, the Activity (Homo sapiens) is reported as “inactive”, the inhibition (Chorioallantoic membrane [1]) is reported as “inactive” and the inhibition in vivo at 0.036 mg/kg/day (Chorioallantoic membrane [2]) is reported as 20%. For the same compound, the IC50 (HEK293) was > 200 µM, the IC50 [3] was 89 µM and the IC50 [4] was > 200 µM. For the same compound, the inhibition in vivo at 0.064 mg/kg/day (A2780 [5]) was 53%, the inhibition (Chorioallantoic membrane [6]) was “Active” and the inhibition in vivo at 0.435 mg/kg/day (A2780 [7]) was 49.5%. For the same compound, the IC50 (A2780 [8]) was > 200 µM.

O=C(O)CCCc1ccc(N(CCCl)CCCl)cc1 [CHLORAMBUCIL] gave an inhibition in vivo at 0.02 mg/kg/day (Chorioallantoic membrane [9]) of 33%, an IC50 [10] of 1.25 µg/mL (≈ 4.11 µM) and an IC50 (HEK293) of 25 µM. The IC50 [3] was 8 µM, the IC50 [4] was 43 µM and the IC50 (A2780 [8]) was 12 µM.

O=C(CCCc1ccc(N(CCCl)CCCl)cc1)OCCC(F)(F)C(F)(F)C(F)(F)C(F)(F)C(F)(F)C(F)(F)C(F)(F)C(F)(F)F showed an IC50 (HEK293) of 57 µM, an IC50 [3] of 52 µM and an IC50 [4] of 25 µM. The IC50 (A2780 [8]) was 38 µM and the inhibition in vivo at 0.049 mg/kg/day (Chorioallantoic membrane [11]) was 29%.

With O=C(CCCc1ccc(N(CCCl)CCCl)cc1)OCCC(F)(F)C(F)(F)C(F)(F)C(F)(F)C(F)(F)C(F)(F)C(F)(F)C(F)(F)C(F)(F)C(F)(F)F the Activity (Homo sapiens) was “inactive”, the inhibition (Chorioallantoic membrane [12]) was “inactive” and the inhibition in vivo at 0.055 mg/kg/day (Chorioallantoic membrane [13]) was 59%. For the same compound, the inhibition (Chorioallantoic membrane [14]) was “inactive”, the IC50 (HEK293) was > 200 µM and the IC50 [3] was 66 µM. For the same compound, the IC50 [4] was > 200 µM, the inhibition in vivo at 0.487 mg/kg/day (A2780 [15]) was 70% and the IC50 (A2780 [8]) was > 200 µM.
